# Values of other authors, collected in US20130225598A1, “Stabilized Amorphous Forms of Imatinib Mesylate” (Novartis AG, priority 2007, published 2013).
# Conditions: at temperatures below 140 ° C.
smiles,measurement,value
CS(=O)(=O)O.Cc1ccc(NC(=O)c2ccc(CN3CCN(C)CC3)cc2)cc1Nc1nccc(-c2cccnc2)n1 [4-(4-methylpiperazin-1-ylmethyl)-N-[4-methyl-3-(4-(pyridin-3-yl)-pyrimidin-2-ylamino-)phenyl]-benzamide mesylate],thermodynamic stability relative to alpha crystal form,thermodynamically more stable than the alpha form
